{"source": "patent US9695155B2", "about": "“Herbicidal substituted pyrimidinyloxy benzene compounds” (E. I. DU PONT DE NEMOURS AND COMPANY, priority 2013, dated 2017)", "key": {"pigweed": {"tested_on": "pigweed", "experiment": "Test C postemergence", "assay_type": "in vivo, Amaranthus retroflexus", "procedure,_shortened": "(§1)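 Greenhouse herbicide screen. Pre: seeded loam/sand, sprayed at planting. Post: 1–4 leaf plants (2–18 cm) in peat-based mix. Formulation: solvent mixture + surfactant, non-phytotoxic. Readout: visual % control vs untreated, 13–15 d; dash = not tested.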"}, "velvetleaf": {"tested_on": "velvetleaf", "experiment": "Test A postemergence", "assay_type": "in vivo, Abutilon theophrasti", "settings": "0 to 100 scale where 0 is no effect and 100 is complete control", "procedure,_shortened": "(§2)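 Injury scores run from 0, no effect, to 100, complete control, judged by eye against untreated plants roughly 10 days after treatment. Chemicals carried a surfactant in a non-phytotoxic solvent and went onto loam–sand soil preemergence or onto one- to two-leaf seedlings postemergence.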"}, "rice": {"tested_on": "rice", "experiment": "Test B flooded paddy test", "assay_type": "in vivo, Oryza sativa", "settings": "Flood, 250 g ai/ha; 0 to 100 scale where 0 is no effect and 100 is complete control", "procedure,_shortened": "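Visual ratings on a 0 to 100 scale, where 100 means complete control, compared treated plants with controls after 13 to 15 days in a greenhouse. Treatment went into paddy water 3 cm deep over the soil, applied to plants at the 2-leaf stage.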"}, "large (Lg) crabgrass [1]": {"tested_on": "large (Lg) crabgrass", "experiment": "Test A postemergence", "assay_type": "in vivo, Digitaria sanguinalis", "settings": "0 to 100 scale where 0 is no effect and 100 is complete control", "procedure,_shortened": "as §2"}, "yellow nutsedge": {"tested_on": "yellow nutsedge", "experiment": "Test C postemergence", "assay_type": "in vivo, Cyperus esculentus", "procedure,_shortened": "as §1"}, "wheat": {"tested_on": "wheat", "experiment": "Test A preemergence", "assay_type": "in vivo, Triticum aestivum", "procedure,_shortened": "as §2"}, "corn": {"tested_on": "corn", "experiment": "Test A postemergence", "assay_type": "in vivo, Zea mays", "settings": "0 to 100 scale where 0 is no effect and 100 is complete control", "procedure,_shortened": "as §2"}, "giant foxtail [2]": {"tested_on": "giant foxtail", "experiment": "Test A postemergence", "assay_type": "in vivo, Setaria faberii", "settings": "0 to 100 scale where 0 is no effect and 100 is complete control", "procedure,_shortened": "as §2"}, "kochia": {"tested_on": "kochia", "experiment": "Test C postemergence", "assay_type": "in vivo, Kochia scoparia", "procedure,_shortened": "as §1"}, "giant foxtail [3]": {"tested_on": "giant foxtail", "experiment": "Test A preemergence", "assay_type": "in vivo, Setaria faberii", "procedure,_shortened": "as §2"}, "wild oat": {"tested_on": "wild oat", "experiment": "Test C postemergence", "assay_type": "in vivo, Avena fatua", "procedure,_shortened": "as §1"}, "large (Lg) crabgrass [4]": {"tested_on": "large (Lg) crabgrass", "experiment": "Test A preemergence", "assay_type": "in vivo, Digitaria sanguinalis", "procedure,_shortened": "as §2"}, "morningglory [5]": {"tested_on": "morningglory", "experiment": "Test A preemergence", "assay_type": "in vivo, Ipomoea spp.", "procedure,_shortened": "as §2"}, "Italian ryegrass": {"tested_on": "Italian ryegrass", "experiment": "Test C postemergence", "assay_type": "in vivo, Lolium multiflorum", "procedure,_shortened": "as §1"}, "morningglory [6]": {"tested_on": "morningglory", "experiment": "Test C postemergence", "assay_type": "in vivo, Ipomoea coccinea", "procedure,_shortened": "as §1"}, "[7]": {"settings": "16 g ai/ha, postemergence, 0 is no effect, 100 is complete control"}, "[8]": {"settings": "31 g ai/ha, postemergence, visual rating, scale 0 to 100 (0 no effect, 100 complete control), 13 to 15 days"}, "[9]": {"settings": "125 g ai/ha, postemergence, visual rating, scale 0 to 100 (0 no effect, 100 complete control)"}, "[10]": {"settings": "Postemergence, 62 g ai/ha, scale 0 to 100 (0 no effect, 100 complete control), 13 to 15 days"}, "[11]": {"settings": "500 g ai/ha, 0 to 100 scale where 0 is no effect and 100 is complete control"}}, "data": [{"smiles": "FC(F)c1cnn(-c2c(Br)cccc2Oc2ncc(Cl)cn2)c1", "note": "[Compound 232]", "values": [{"measurement": "Plant response rating (0 to 100), Pigweed", "setting": "pigweed; [7]", "value": 60}, {"measurement": "Pigweed plant response rating", "setting": "pigweed; [8]", "value": 70}, {"measurement": "Plant response rating, Pigweed", "setting": "pigweed; [9]", "value": 85}, {"measurement": "Plant response rating, Pigweed", "setting": "pigweed; [10]", "value": 60}, {"measurement": "Velvetleaf plant response rating", "setting": "velvetleaf; 125 g ai/ha", "value": 80}, {"measurement": "Plant response rating, Velvetleaf", "setting": "velvetleaf; 500 g ai/ha", "value": 100}, {"measurement": "Plant response rating, Rice", "setting": "rice", "value": 35}, {"measurement": "Crabgrass, Large plant response rating", "setting": "large (Lg) crabgrass [1]; 125 g ai/ha", "value": 60}, {"measurement": "Plant response rating, Crabgrass, Large", "setting": "large (Lg) crabgrass [1]; 500 g ai/ha", "value": 90}, {"measurement": "Plant response rating (0 to 100), Nutsedge, Yellow", "setting": "yellow nutsedge; [7]", "value": 5}, {"measurement": "Nutsedge, Yellow plant response rating", "setting": "yellow nutsedge; [8]", "value": 5}, {"measurement": "Plant response rating, Nutsedge, Yellow", "setting": "yellow nutsedge; [9]", "value": 5}, {"measurement": "Plant response rating, Nutsedge, Yellow", "setting": "yellow nutsedge; [10]", "value": 5}, {"measurement": "Wheat plant response rating (0 to 100 scale)", "setting": "wheat; 125 g ai/ha", "value": 0}, {"measurement": "Wheat plant response rating", "setting": "wheat; [11]", "value": 10}, {"measurement": "Corn plant response rating", "setting": "corn; 125 g ai/ha", "value": 30}, {"measurement": "Plant response rating, Corn", "setting": "corn; 500 g ai/ha", "value": 90}, {"measurement": "Foxtail, Giant plant response rating", "setting": "giant foxtail [2]; 125 g ai/ha", "value": 70}, {"measurement": "Plant response rating, Foxtail, Giant", "setting": "giant foxtail [2]; 500 g ai/ha", "value": 90}, {"measurement": "Plant response rating (0 to 100), Kochia", "setting": "kochia; [7]", "value": 85}, {"measurement": "Kochia plant response rating", "setting": "kochia; [8]", "value": 85}, {"measurement": "Plant response rating, Kochia", "setting": "kochia; [9]", "value": 98}, {"measurement": "Plant response rating, Kochia", "setting": "kochia; [10]", "value": 90}, {"measurement": "Foxtail, Giant plant response rating (0 to 100 scale)", "setting": "giant foxtail [3]; 125 g ai/ha", "value": 90}, {"measurement": "Foxtail, Giant plant response rating", "setting": "giant foxtail [3]; [11]", "value": 90}, {"measurement": "Plant response rating (0 to 100), Oat, Wild", "setting": "wild oat; [7]", "value": 0}, {"measurement": "Oat, Wild plant response rating", "setting": "wild oat; [8]", "value": 0}, {"measurement": "Plant response rating, Oat, Wild", "setting": "wild oat; [9]", "value": 20}, {"measurement": "Plant response rating, Oat, Wild", "setting": "wild oat; [10]", "value": 5}, {"measurement": "Crabgrass, Large plant response rating (0 to 100 scale)", "setting": "large (Lg) crabgrass [4]; 125 g ai/ha", "value": 90}, {"measurement": "Crabgrass, Large plant response rating", "setting": "large (Lg) crabgrass [4]; [11]", "value": 100}, {"measurement": "Morningglory plant response rating (0 to 100 scale)", "setting": "morningglory [5]; 125 g ai/ha", "value": 20}, {"measurement": "Morningglory plant response rating", "setting": "morningglory [5]; [11]", "value": 90}, {"measurement": "Plant response rating (0 to 100), Ryegrass, Italian", "setting": "Italian ryegrass; [7]", "value": 0}, {"measurement": "Ryegrass, Italian plant response rating", "setting": "Italian ryegrass; [8]", "value": 0}, {"measurement": "Plant response rating, Ryegrass, Italian", "setting": "Italian ryegrass; [9]", "value": 10}, {"measurement": "Plant response rating, Ryegrass, Italian", "setting": "Italian ryegrass; [10]", "value": 5}, {"measurement": "Plant response rating (0 to 100), Morningglory", "setting": "morningglory [6]; [7]", "value": 70}, {"measurement": "Morningglory plant response rating", "setting": "morningglory [6]; [8]", "value": 80}, {"measurement": "Plant response rating, Morningglory", "setting": "morningglory [6]; [9]", "value": 85}, {"measurement": "Plant response rating, Morningglory", "setting": "morningglory [6]; [10]", "value": 55}]}]}
